How the values were obtained:
Mu-type opioid receptor [1] = biological target: T1, Mu-type opioid receptor (Homo sapiens, UniProt P35372); assay: GPCRScan assay: inhibition of MOR; parameters: radioligand conc. used [nm] 1.0 – 2.0, parental cells stable HEK
Histamine H1 receptor = Histamine H1 receptor (Homo sapiens, UniProt P35367); assay: GPCRScan assay: inhibition of H1; parameters: radioligand conc. used [nm] 0.6 – 2.0, parental cells stable HEK
[2] = biological target: Sodium-dependent serotonin transporter (Homo sapiens, UniProt P31645); assay: GPCRScan assay: inhibition of SERT; parameters: radioligand conc. used [nm] 1.5 – 2.0, parental cells stable HEK
Sodium-dependent serotonin transporter, sequence (P31645 whole entry): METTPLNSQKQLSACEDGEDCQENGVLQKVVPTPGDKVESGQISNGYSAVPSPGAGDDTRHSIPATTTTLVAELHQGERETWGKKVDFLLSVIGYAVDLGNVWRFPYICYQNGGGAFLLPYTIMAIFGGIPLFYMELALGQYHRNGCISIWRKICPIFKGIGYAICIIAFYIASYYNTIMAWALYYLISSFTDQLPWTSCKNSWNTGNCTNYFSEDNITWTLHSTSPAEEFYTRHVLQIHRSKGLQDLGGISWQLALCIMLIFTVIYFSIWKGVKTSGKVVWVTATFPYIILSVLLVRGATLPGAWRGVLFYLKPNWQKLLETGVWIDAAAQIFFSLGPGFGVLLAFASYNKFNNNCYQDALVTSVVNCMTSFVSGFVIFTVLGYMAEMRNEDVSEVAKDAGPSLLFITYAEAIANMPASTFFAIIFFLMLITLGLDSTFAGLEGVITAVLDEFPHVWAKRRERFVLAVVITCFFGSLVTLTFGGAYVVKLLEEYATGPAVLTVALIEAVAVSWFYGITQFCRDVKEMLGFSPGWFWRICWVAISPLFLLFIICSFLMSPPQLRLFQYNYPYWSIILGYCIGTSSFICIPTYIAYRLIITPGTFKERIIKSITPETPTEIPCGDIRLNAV

D(2) dopamine receptor [3] = biological target: T2, D(2) dopamine receptor (Homo sapiens, UniProt P14416); assay: GPCRScan assay: inhibition of D2; parameters: radioligand conc. used [nm] 0.4 – 1.0, parental cells stable fibroblast
T2 sequence (P14416 whole entry): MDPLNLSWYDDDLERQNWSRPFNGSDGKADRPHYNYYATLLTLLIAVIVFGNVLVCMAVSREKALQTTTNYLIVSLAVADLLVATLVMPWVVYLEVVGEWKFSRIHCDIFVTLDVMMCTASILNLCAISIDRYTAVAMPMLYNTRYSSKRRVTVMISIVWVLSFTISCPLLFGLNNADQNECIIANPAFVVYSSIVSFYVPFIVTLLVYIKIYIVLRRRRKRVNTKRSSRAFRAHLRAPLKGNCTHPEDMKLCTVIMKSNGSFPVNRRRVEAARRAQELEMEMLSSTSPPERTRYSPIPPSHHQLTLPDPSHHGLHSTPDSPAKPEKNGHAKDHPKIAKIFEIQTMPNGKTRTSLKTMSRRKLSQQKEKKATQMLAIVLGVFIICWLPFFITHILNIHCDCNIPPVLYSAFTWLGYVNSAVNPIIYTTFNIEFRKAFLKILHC

[4] = biological target: T3, Testis-specific serine/threonine-protein kinase 1 (Homo sapiens) (UniProt Q9BXA7); assay: TSSK1(h) Eurofins Kinase panel; conditions: Compound concentration 1.0 uM
T3 sequence (whole entry): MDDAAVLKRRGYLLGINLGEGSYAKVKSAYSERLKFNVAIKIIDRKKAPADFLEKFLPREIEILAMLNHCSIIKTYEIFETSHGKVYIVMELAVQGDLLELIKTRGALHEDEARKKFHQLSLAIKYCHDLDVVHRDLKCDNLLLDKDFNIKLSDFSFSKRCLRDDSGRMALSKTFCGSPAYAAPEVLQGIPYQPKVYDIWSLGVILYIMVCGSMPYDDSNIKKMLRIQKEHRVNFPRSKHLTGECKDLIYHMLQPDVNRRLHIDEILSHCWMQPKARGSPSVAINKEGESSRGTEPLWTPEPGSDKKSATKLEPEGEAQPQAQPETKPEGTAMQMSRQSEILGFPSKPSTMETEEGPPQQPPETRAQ

[5] = biological target: T4, Alpha-2C adrenergic receptor (Homo sapiens) (UniProt P18825); conditions: Compound concentration 10.0 uM
T4 sequence (whole entry): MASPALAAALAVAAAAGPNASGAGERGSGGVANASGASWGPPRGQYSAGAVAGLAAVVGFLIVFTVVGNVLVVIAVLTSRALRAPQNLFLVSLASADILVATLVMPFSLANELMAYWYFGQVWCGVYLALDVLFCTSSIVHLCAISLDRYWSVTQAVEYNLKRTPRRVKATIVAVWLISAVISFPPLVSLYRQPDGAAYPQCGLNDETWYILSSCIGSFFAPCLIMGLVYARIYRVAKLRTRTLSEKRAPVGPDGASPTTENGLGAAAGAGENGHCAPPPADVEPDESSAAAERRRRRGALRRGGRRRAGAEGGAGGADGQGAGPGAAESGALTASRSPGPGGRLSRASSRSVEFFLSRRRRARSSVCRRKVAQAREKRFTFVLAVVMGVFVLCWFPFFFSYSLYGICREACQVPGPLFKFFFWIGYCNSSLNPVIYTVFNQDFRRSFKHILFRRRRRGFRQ

D(1A) dopamine receptor = D(1A) dopamine receptor (Homo sapiens, UniProt P21728); conditions: Compound concentration 10.0 uM
[6] = biological target: NT-3 growth factor receptor (Homo sapiens) (UniProt Q16288); assay: TrkC(h) Eurofins Kinase panel; conditions: Compound concentration 1.0 uM
NT-3 growth factor receptor (Homo sapiens), sequence (Q16288 32-839 limits assumed): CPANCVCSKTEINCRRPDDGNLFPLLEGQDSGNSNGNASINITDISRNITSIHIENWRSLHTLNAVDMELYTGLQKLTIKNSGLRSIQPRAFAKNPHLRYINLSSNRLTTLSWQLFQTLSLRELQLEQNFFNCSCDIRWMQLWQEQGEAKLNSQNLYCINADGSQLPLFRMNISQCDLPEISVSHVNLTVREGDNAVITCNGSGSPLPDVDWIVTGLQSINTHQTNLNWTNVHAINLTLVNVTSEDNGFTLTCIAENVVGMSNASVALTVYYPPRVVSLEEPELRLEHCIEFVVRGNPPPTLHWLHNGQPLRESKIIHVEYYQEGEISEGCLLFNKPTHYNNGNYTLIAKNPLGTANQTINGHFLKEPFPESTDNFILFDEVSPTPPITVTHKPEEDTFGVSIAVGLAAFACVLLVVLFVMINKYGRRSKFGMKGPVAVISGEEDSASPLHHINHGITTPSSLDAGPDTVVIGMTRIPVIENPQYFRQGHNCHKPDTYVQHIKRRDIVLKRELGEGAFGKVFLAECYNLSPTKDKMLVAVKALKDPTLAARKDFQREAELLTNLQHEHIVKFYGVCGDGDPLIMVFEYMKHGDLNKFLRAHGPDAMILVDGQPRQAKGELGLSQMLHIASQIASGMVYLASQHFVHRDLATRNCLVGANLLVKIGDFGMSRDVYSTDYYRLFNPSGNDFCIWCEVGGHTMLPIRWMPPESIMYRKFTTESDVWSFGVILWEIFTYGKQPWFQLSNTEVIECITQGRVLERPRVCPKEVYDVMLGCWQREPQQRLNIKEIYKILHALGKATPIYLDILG

[7] = biological target: Proto-oncogene tyrosine-protein kinase receptor Ret (Homo sapiens) (UniProt P07949); assay: Ret(h) Eurofins Kinase panel; conditions: Compound concentration 1.0 uM
Proto-oncogene tyrosine-protein kinase receptor Ret (Homo sapiens), sequence (P07949 whole entry): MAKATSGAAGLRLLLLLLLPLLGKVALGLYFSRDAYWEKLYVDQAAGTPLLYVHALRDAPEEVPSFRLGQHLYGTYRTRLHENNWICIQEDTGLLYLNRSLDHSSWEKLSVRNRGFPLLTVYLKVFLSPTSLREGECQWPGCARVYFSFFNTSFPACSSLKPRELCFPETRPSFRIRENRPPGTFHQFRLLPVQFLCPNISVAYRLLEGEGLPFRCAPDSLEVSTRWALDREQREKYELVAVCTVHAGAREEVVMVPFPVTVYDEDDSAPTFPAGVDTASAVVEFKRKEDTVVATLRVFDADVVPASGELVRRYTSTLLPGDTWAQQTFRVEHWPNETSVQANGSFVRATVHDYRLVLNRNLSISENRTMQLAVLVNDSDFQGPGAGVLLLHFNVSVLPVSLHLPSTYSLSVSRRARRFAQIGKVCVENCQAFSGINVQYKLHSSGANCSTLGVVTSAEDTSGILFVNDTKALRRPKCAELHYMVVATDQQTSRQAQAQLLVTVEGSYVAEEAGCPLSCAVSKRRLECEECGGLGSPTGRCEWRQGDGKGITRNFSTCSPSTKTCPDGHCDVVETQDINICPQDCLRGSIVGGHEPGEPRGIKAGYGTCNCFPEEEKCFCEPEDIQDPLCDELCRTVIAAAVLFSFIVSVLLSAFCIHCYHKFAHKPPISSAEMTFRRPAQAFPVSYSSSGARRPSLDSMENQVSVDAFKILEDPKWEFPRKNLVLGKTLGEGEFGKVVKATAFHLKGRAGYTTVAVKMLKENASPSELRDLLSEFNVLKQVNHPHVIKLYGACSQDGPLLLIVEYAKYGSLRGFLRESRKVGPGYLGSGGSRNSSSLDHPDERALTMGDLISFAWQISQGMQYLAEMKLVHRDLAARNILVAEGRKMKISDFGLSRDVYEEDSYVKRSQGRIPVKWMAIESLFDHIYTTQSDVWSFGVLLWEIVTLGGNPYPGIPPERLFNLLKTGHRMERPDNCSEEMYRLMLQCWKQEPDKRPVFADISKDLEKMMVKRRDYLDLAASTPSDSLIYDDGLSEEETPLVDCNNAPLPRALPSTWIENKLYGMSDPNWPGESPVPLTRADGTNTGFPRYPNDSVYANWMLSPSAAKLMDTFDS

Mu-type opioid receptor [8] = biological target: T1, Mu-type opioid receptor; conditions: Compound concentration 10.0 uM
D(2) dopamine receptor [9] = biological target: T2, D(2) dopamine receptor; conditions: Compound concentration 10.0 uM
[10] = biological target: [Pyruvate dehydrogenase (acetyl-transferring)] kinase isozyme 2, mitochondrial (Homo sapiens) (UniProt Q15119); assay: PDHK2(h) Eurofins Kinase panel; conditions: Compound concentration 1.0 uM
ATR/ATRIP (Homo sapiens) = ATR/ATRIP (Homo sapiens) (UniProt Q13535+Q8WXE1); assay: ATR/ATRIP(h) Eurofins Kinase panel; format: protein-complex assay; conditions: Compound concentration 1.0 uM
[11] = biological target: Muscarinic acetylcholine receptor M3 (Homo sapiens, UniProt P20309); assay: GPCRScan assay: inhibition of M3; parameters: radioligand conc. used [nm] 0.3 – 1.0, parental cells stable CHO
Muscarinic acetylcholine receptor M3, sequence (P20309 whole entry): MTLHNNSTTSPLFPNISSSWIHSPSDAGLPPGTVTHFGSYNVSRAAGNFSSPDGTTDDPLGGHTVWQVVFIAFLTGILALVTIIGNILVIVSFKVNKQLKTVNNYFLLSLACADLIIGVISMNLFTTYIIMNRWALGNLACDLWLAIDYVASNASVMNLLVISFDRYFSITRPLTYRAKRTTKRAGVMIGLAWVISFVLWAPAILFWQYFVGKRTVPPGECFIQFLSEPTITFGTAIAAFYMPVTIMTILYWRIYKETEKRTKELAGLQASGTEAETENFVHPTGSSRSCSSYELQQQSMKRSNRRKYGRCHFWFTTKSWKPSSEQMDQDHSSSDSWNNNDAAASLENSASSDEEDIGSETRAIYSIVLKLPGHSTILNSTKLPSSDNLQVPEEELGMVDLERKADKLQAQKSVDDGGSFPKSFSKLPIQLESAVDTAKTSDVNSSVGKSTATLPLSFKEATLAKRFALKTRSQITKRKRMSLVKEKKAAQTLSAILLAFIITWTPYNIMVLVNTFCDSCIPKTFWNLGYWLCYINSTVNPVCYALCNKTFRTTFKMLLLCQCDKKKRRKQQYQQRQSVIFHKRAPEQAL

D(4) dopamine receptor = D(4) dopamine receptor (Homo sapiens, UniProt P21917); assay: GPCRScan assay: inhibition of D4; parameters: radioligand conc. used [nm] 0.6 – 1.7, parental cells Stable HEK
D(4) dopamine receptor, sequence (P21917 whole entry): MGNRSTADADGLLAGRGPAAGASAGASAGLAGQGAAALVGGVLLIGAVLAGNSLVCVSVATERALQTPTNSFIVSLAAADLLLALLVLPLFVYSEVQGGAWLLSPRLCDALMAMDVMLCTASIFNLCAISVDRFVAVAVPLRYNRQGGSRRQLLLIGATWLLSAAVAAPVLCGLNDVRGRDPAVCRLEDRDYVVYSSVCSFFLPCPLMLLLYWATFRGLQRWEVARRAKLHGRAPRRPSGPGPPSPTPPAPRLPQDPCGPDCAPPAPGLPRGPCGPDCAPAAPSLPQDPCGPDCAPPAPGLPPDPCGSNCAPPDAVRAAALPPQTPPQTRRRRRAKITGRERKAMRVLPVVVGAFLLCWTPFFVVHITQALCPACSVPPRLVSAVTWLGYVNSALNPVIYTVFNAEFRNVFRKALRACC

[12] = biological target: Casein kinase II subunit alpha' (Homo sapiens) (UniProt P19784); assay: CK2alpha2(h) Eurofins Kinase panel; conditions: Compound concentration 1.0 uM
[13] = biological target: Adenosine Transporter (Cavia porcellus) (UniProt H0V4R7+H0UUG1+H0V3Z5); assay: Inhibition of Transporter, Adenosine at compound concentration of 10.0 uM in the Eurofins-Panlabs radioligand binding assay (Eurofins_assay_202000); format: protein assay; parameters: ligand concentration 0.5 nM, non-specific ligand with concentration 5 uM Nitrobenzylthioinosine, incubation time 30 min, incubation temperature 25 C; conditions: Compound concentration 10.0 uM
[14] = biological target: Serine/threonine-protein kinase PAK 6 (Homo sapiens) (UniProt Q9NQU5); assay: PAK6(h) Eurofins Kinase panel; conditions: Compound concentration 1.0 uM
[15] = biological target: 5-hydroxytryptamine receptor 2A (Homo sapiens, UniProt P28223); conditions: Compound concentration 10.0 uM
D(2) dopamine receptor [16] = biological target: T2, D(2) dopamine receptor; conditions: Compound concentration 10.0 uM; remark: listed apart in the source
[17] = biological target: T5, 5-hydroxytryptamine receptor 2C (Homo sapiens) (UniProt P28335); conditions: Compound concentration 10.0 uM
T5 sequence (whole entry): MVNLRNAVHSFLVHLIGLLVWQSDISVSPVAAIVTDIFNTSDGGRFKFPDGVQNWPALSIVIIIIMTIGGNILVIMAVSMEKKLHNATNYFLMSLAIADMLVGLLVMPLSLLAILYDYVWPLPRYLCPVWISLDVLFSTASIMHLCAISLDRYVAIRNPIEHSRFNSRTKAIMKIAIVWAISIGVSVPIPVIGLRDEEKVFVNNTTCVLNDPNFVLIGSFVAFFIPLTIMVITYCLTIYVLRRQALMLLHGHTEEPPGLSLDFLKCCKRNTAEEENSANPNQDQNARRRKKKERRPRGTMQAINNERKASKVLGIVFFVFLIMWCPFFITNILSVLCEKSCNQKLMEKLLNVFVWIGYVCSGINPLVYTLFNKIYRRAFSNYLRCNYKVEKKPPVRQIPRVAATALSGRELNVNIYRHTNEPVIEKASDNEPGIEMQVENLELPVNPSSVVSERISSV

[18] = biological target: Sodium-dependent dopamine transporter (Homo sapiens, UniProt Q01959); conditions: Compound concentration 10.0 uM
D(3) dopamine receptor = D(3) dopamine receptor (Homo sapiens, UniProt P35462); conditions: Compound concentration 10.0 uM
[19] = biological target: Eukaryotic translation initiation factor 2-alpha kinase 3 (Homo sapiens) (UniProt Q9NZJ5); assay: PEK(h) Eurofins Kinase panel; conditions: Compound concentration 1.0 uM
[20] = biological target: Dual specificity tyrosine-phosphorylation-regulated kinase 1A (Homo sapiens) (UniProt Q13627); assay: DYRK1A(h) Eurofins Kinase panel; conditions: Compound concentration 1.0 uM
[21] = biological target: Vascular endothelial growth factor receptor 1 (Homo sapiens) (UniProt P17948); assay: Flt1(h) Eurofins Kinase panel; conditions: Compound concentration 1.0 uM

T1 sequence (P35372 whole entry): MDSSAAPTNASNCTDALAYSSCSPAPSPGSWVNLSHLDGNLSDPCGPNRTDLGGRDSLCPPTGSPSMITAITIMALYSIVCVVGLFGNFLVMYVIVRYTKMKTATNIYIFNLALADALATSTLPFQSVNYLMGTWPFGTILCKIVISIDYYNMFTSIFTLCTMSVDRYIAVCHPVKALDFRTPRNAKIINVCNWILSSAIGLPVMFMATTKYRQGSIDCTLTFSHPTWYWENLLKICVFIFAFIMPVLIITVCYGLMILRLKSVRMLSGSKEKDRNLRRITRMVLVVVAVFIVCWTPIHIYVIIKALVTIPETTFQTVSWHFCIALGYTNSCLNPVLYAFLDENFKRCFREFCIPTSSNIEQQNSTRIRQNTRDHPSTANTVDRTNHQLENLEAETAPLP
Histamine H1 receptor, sequence (P35367 whole entry): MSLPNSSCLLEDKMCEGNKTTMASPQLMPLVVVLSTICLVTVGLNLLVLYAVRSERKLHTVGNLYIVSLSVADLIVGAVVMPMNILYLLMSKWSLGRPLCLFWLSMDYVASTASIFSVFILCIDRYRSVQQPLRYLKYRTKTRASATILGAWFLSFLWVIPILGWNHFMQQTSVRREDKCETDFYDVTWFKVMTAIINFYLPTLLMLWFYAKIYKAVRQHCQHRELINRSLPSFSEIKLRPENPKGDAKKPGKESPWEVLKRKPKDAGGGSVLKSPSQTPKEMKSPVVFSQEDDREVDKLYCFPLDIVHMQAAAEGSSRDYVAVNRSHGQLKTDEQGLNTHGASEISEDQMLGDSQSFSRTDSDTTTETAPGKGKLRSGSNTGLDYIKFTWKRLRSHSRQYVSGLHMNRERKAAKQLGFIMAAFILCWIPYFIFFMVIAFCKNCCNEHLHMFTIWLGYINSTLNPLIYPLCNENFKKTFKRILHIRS

## CNCc1ccccc1-c1csc([C@H](C)Nc2nc(C)nc3cc(OC)c(OC)cc23)c1 [BAY-294]
Mu-type opioid receptor [1]; read-out: Ki
  Ki: 854 nM
Mu-type opioid receptor [1]; read-out: pKi (converted)
  Ki: 759 nM
Histamine H1 receptor; read-out: Ki
  Ki: 1370 nM
Histamine H1 receptor; read-out: pKi (converted)
  Ki: 1350 nM
[2]
  Ki: 4230 nM
D(2) dopamine receptor [3]; read-out: Ki
  Ki: 2330 nM
D(2) dopamine receptor [3]; read-out: pKi (converted)
  Ki: 2000 nM

## CNCc1ccccc1-c1csc([C@@H](C)Nc2nc(C)nc3cc(OC)c(OC)cc23)c1 [BAY-293]
[4]
  % residual kinase activity: 79%
[5]
  inhibition: 99%
D(1A) dopamine receptor
  inhibition: 85%
[6]
  % residual kinase activity: 80%
[7]
  % residual kinase activity: 81%
Mu-type opioid receptor [8]
  inhibition: 93%
D(2) dopamine receptor [9]
  inhibition: 71%
[10]
  % residual kinase activity: 85%
ATR/ATRIP (Homo sapiens)
  % residual kinase activity: 88%
[11]; read-out: Ki
  Ki: 972 nM
[11]; read-out: pKi (converted)
  Ki: 955 nM
D(4) dopamine receptor; read-out: Ki
  Ki: 2660 nM
D(4) dopamine receptor; read-out: pKi (converted)
  Ki: 2630 nM
[12]
  % residual kinase activity: 67%
[13]
  inhibition: 62%
[14]
  % residual kinase activity: 88%
[15]
  inhibition: 110%
D(2) dopamine receptor [16]
  inhibition: 67%
[17]
  inhibition: 104%
[18]
  inhibition: 90%
D(3) dopamine receptor
  inhibition: 88%
[19]
  % residual kinase activity: 87%
[20]
  % residual kinase activity: 68%
[21]
  % residual kinase activity: 88%

— ChEMBL document CHEMBL4507273 (2021)
